Results as given in patent publication US8410126B2, “Pyrimidine inhibitors of PKTK2” (Boehringer Ingelheim International GmbH, priority 2009, dated 2013).

Molecular target: T1, PTK2 (Homo sapiens, UniProt Q05397)
T1 construct: purchased Invitrogen PV3832
Test: PTK2 enzyme test Assay 2 (DELFIA, poly-Glu-Tyr substrate, PT66 antibody)
Format: biochemical
Settings: Assay 2 (values marked *); 1 h pre-incubation, 50 μM ATP mix, final DMSO 0.5%
Excerpt: This test uses active PTK2 enzyme (Invitrogen Code PV3832) and poly-Glu-Tyr (4:1, Sigma P-0275) as the kinase substrate. The kinase activity is detected by means of the phosphorylation of the substrate in a DELFIA™ assay. The phosphorylated substrate is detected with the europium-labelled phosphotyrosine antibody PT66 (Perkin Elmer, No.: AD0040).
In order to determine concentration-activity curves with PTK2-inhibitors the compounds are serially diluted first of all in 100% DMSO and then in kinase dilution buffer (20 mM TRIS/HCl pH 7.5, 0.1 mM EDTA, 0.1 mM EGTA, 0.286 mM sodium orthovanadate, 10% glycerol with the addition of freshly prepared BSA (fraction V, 1 mg/mL) and DTT (1 mM)) and 10 μL of each dilution are dispensed per well in a 96-well microtitre plate (clear U-shaped base plate, Greiner No. 650101) (the inhibitors are tested in duplicates) and mixed with 10 μL/well of PTK2 kinase (0.01 μg/well). PTK2 kinase is diluted accordingly beforehand with kinase dilution buffer. The diluted PTK2 inhibitor and the PTK2 kinase are pre-incubated for 1 h at RT and shaken at 500 revolutions per min. Then 10 μL/well poly-Glu-Tyr substrate (25 μg/well poly-Glu-Tyr, 0.05 μg/well biotinylated poly-Glu-Tyr dissolved in 250 mM TRIS/HCl pH 7.5, 9 mM DTT) are added. The reaction is started by the addition of 20 μL of ATP Mix (30 mM TRIS/HCl pH 7.5, 0.02% Brij, 0.2 mM sodium orthovanadate, 10 mM magnesium acetate, 0.1 mM EGTA, 1× phosphatase inhibitor cocktail 1 (Sigma, No.: P2850), 50 μM ATP (Sigma, No.: A3377; 15 mM stock solution))—the final concentration of DMSO is 0.5%. After 1 h kinase reaction (the plates are shaken at 500 rpm), the reaction is stopped by the addition of 12 μL/well of 100 mM EDTA, pH 8, and shaken for a further 5 min at RT (500 U/min). 55 μL of the reaction mixture are transferred into a streptavidin plate (Strepta Well High Bind (transparent, 96-well) made by Roche, No.: 11989685001) and incubated for 1 h at RT (shaking at 500 rpm). Then the microtitre plate is washed five times with 200 μL/well D-PBS (Invitrogen, No. 14190). 100 μL of a solution containing DELFIA Eu-N1 Anti-Phosphotyrosine PT66 antibody (Perkin Elmer, No.: AD0040, diluted 1:9000 in DELFIA test buffer (Perkin Elmer, No.: 1244-111)) is then added and it is incubated for 1 h at RT (shaking at 500 rpm). Then the plate is washed five times with 200 μL/well DELFIA washing buffer (Perkin Elmer, No.: 1244-114), 200 μL/well strengthening solution (Perkin Elmer, No.: 1244-105) is added and the whole is incubated for 10 min at RT (shaking at 300 rpm).
The time-delayed europium fluorescence is then measured in a microtitre plate reader (VICTOR^3, Perkin Elmer). The positive control consists of wells that contain solvent (0.5% DMSO in test buffer) and display uninhibited kinase activity. Wells that contain test buffer instead of enzyme act as a control for the background kinase activity.
The IC50 values are determined from concentration-activity analyses by iterative calculation using a sigmoid curve analysis algorithm (FIFTY, based on GraphPAD Prism Version 3.03) with a variable Hill coefficient.

T1 sequence (Q05397 whole entry): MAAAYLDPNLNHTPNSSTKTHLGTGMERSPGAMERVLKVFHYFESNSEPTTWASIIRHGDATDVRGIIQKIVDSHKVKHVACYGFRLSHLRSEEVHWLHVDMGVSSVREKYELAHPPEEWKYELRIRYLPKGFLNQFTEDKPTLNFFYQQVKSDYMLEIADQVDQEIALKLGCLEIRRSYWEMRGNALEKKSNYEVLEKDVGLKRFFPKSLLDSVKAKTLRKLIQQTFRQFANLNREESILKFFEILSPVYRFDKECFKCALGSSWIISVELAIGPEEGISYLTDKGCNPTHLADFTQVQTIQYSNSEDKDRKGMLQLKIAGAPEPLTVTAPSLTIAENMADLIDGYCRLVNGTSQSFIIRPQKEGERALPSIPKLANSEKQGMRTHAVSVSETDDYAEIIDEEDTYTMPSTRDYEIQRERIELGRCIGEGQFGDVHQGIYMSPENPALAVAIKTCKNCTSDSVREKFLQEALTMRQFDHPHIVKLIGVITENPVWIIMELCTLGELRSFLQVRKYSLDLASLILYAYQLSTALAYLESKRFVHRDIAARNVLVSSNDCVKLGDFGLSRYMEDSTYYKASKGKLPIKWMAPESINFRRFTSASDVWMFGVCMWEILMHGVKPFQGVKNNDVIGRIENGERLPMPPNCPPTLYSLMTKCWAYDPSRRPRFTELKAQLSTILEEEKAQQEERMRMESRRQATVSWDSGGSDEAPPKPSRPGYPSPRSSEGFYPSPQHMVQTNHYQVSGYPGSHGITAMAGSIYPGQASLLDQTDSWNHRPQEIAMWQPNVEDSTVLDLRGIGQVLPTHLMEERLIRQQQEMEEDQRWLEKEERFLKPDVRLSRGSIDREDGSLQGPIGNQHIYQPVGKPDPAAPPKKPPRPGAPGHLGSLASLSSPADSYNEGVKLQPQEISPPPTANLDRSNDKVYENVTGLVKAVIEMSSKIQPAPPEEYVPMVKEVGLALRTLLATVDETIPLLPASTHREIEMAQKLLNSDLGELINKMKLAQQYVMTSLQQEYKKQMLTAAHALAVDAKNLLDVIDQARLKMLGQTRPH

IC50	SMILES
16 nM	COc1cc(C(=O)NCCN(C)C)ccc1Nc1ncc(C(F)(F)F)c(N[C@@H]2CCc3ccccc3[C@H]2N(C)S(C)(=O)=O)n1 [Example I-94]
0.48 nM	COc1cc(NC(=O)C2CCN(C)CC2)ccc1Nc1ncc(C(F)(F)F)c(N[C@@H]2Cc3ccccc3[C@H]2N(C)S(C)(=O)=O)n1 [Example I-73, 1-methyl-piperidine-4-carboxylic acid (4-{4-[(1R,2R)-1-(methanesulphonyl-methyl-amino)-indan-2-ylamino]-5-trifluoromethyl-pyrimidin-2-ylamino}-3-methoxy-phenyl)-amide]
0.75 nM	COc1cc(N2CCN(C(C)(C)C)CC2)ccc1Nc1ncc(C(F)(F)F)c(N[C@@H]2Cc3ccccc3[C@H]2NS(C)(=O)=O)n1 [Example I-91]
0.56 nM	COc1cc(N2CCN(C)CC2)c(C)cc1Nc1ncc(C(F)(F)F)c(N[C@@H]2Cc3ccccc3[C@H]2N(C)S(C)(=O)=O)n1 [Example I-77]
0.23 nM	COc1cc(NC(=O)N(C)C)ccc1Nc1ncc(C(F)(F)F)c(N[C@@H]2Cc3ccccc3[C@H]2N(C)S(C)(=O)=O)n1 [Example I-79]
0.26 nM	CN1CCC(NC(=O)c2cccc(Nc3ncc(C(F)(F)F)c(N[C@@H]4Cc5ccccc5[C@H]4N(C)S(C)(=O)=O)n3)c2)CC1 [Example I-88]
0.31 nM	COc1cc(N2CCN(C)CC2=O)ccc1Nc1ncc(C(F)(F)F)c(N[C@@H]2Cc3ccccc3[C@H]2N(C)S(C)(=O)=O)n1 [Example I-86]
0.71 nM	COc1ccc(C(=O)NCCN(C)C)cc1Nc1ncc(C(F)(F)F)c(N[C@@H]2Cc3ccccc3[C@H]2N(C)S(C)(=O)=O)n1 [Example I-63, N-(2-dimethylamino-ethyl)-3-{4-[(1R,2R)-1-(methanesulphonyl-methyl-amino)-indan-2-ylamino]-5-trifluoromethyl-pyrimidin-2-ylamino}-4-methoxy-benzamide]
0.6 nM	COc1ccc(C(=O)NC2CCN(C)CC2)cc1Nc1ncc(Cl)c(N[C@@H]2Cc3ccccc3[C@H]2N(C)S(C)(=O)=O)n1 [Example I-93]
0.68 nM	CCc1cc(Nc2ncc(C(F)(F)F)c(N[C@@H]3Cc4ccccc4[C@H]3N(C)S(C)(=O)=O)n2)c(OC)cc1N1CCN(C(C)(C)C)CC1 [Example I-89]
0.6 nM	COc1cc(N2CCN(C(C)(C)C)CC2)ccc1Nc1ncc(C(F)(F)F)c(N[C@@H]2Cc3ccccc3[C@H]2N(C)S(C)(=O)=O)n1 [Example I-66, N-((1R,2R)-2-{2-[4-(4-tert-butyl-piperazin-1-yl)-2-methoxy-phenylamino]-5-trifluoromethyl-pyrimidin-4-ylamino}-indan-1-yl)-N-methyl-methanesulphonamide]
0.83 nM	COc1cc(N2CCN(C(C)(C)C)CC2)c(C)cc1Nc1ncc(C(F)(F)F)c(N[C@@H]2Cc3ccccc3[C@H]2N(C)S(C)(=O)=O)n1 [Example I-78, N-((1R,2R)-2-{2-[4-(4-tert-butyl-piperazin-1-yl)-2-methoxy-5-methyl-phenylamino]-5-trifluoromethyl-pyrimidin-4-ylamino}-indan-1-yl)-N-methyl-methanesulphonamide]
0.74 nM	COc1cc(NC(=O)C2CCN(C)C2)ccc1Nc1ncc(C(F)(F)F)c(N[C@@H]2Cc3ccccc3[C@H]2N(C)S(C)(=O)=O)n1 (stereo partly shown) [Example I-72]
0.43 nM	COc1ccc(C(=O)N(C)C2CCN(C)CC2)cc1Nc1ncc(C(F)(F)F)c(N[C@@H]2Cc3ccccc3[C@H]2N(C)S(C)(=O)=O)n1 [Example I-81]
0.76 nM	COc1cc(N2CCNCC2)c(Cl)cc1Nc1ncc(C(F)(F)F)c(N[C@@H]2Cc3ccccc3[C@H]2N(C)S(C)(=O)=O)n1 [Example I-76, N-{(1R,2R)-2-[2-(5-chloro-2-methoxy-4-piperazin-1-yl-phenylamino)-5-trifluoromethyl-pyrimidin-4-ylamino]-indan-1-yl}-N-methyl-methanesulphonamide]
0.36 nM	COc1cc(C)c(C(=O)NC2CCOCC2)cc1Nc1ncc(C(F)(F)F)c(N[C@@H]2Cc3ccccc3[C@H]2N(C)S(C)(=O)=O)n1 [Example I-82]
